This passage reports IC50, selectivity ratio and Activity results from ChEMBL document CHEMBL4325903, “N-Substituted aminoquinoline-pyrimidine hybrids: Synthesis, in vitro antimalarial activity evaluation and docking studies” (Eur J Med Chem, 2019).

The test system of series [1] is Plasmodium falciparum. Kind of series: Antimalarial activity against chloroquine-sensitive Plasmodium falciparum D6 infected in RBC after 72 hrs by LDH release assay. Type of series: functional, organism-based. The following applies: D6, 72 h.
Series [2] in a line: Selectivity index, ratio of IC50 for cytotoxicity against African green monkey Vero cells to IC50 for chloroquine-sensitive Plasmodium falciparum D6. The format is toxicity, cell-based. The following applies: read-out: Ratio IC50.
Series [3] is described as follows: Selectivity index, ratio of IC50 for cytotoxicity against African green monkey Vero cells to IC50 for chloroquine-resistant Plasmodium falciparum W2. Type of series: toxicity, cell-based. The following applies: read-out: Ratio IC50.
Series [4] deals with Plasmodium falciparum. The series can be described thus: Antimalarial activity against chloroquine-resistant Plasmodium falciparum W2 infected in RBC after 72 hrs by LDH release assay. The format is functional, organism-based. The following applies: W2, 72 h.
In series [5] the test system is Vero. Kind of series: Cytotoxicity against African green monkey Vero cells up to 10 uM after 48 hrs by neutral red assay. Type of series: cell-based. The following applies: chlorocebus sabaeus.
Series [6] deals with Vero. The series can be described thus: Cytotoxicity against African green monkey Vero cells after 48 hrs by neutral red assay. The format is cell-based. The following applies: chlorocebus sabaeus.

Where only a bound is given, the exact number is not on record here.

For the molecule `Cc1cc(N(CCCNc2ccnc3cc(Cl)ccc23)Cc2ccccn2)nc(N2CCCCC2)n1`, the values for the IC50 with Plasmodium falciparum [1] and with Plasmodium falciparum [4] were 93 nM and 819 nM, respectively. Moreover, the values for the selectivity ratio in series [2] and in series [3] were over 102 and over 11.6, respectively. For the same molecule, the Activity result in the series with Vero [5] is given as “Non-Toxic”.
Turning to `Cc1cc(N(CCCNc2ccnc3cc(Cl)ccc23)Cc2cccs2)nc(N2CCCCC2)n1`, the half-maximal inhibitory concentration (IC50) in the series with Plasmodium falciparum [1] was determined as 83.7 nM; in the series with Vero [6], 9150 nM; in the series with Plasmodium falciparum [4], 235 nM. Besides, the selectivity ratio worked out at 109 in series [2] and 38.9 in series [3].
As to `CCN1CCN(c2nc(C)cc(N(CCCNc3ccnc4cc(Cl)ccc34)Cc3cccs3)n2)CC1`, the IC50 stood at 35.8 nM in the series with Plasmodium falciparum [1] and 31.2 nM in the series with Plasmodium falciparum [4]. For the same molecule, the selectivity ratio in series [2] was over 24.8; in series [3], over 28.4. In addition, the Activity result in the series on Vero [5] is listed as “Non-Toxic”.
In the case of `Cc1cc(Cl)nc(N(CCNc2ccnc3cc(Cl)ccc23)Cc2ccccn2)n1`, the 50% inhibitory concentration (IC50) in the series with Plasmodium falciparum [1] was found to be 369 nM; with Plasmodium falciparum [4] it was 1010 nM. Besides, the values for the selectivity ratio in series [2] and in series [3] were 23.2 and 8.5, respectively.
`CCN1CCN(c2nc(C)cc(N(CCCNc3ccnc4cc(Cl)ccc34)Cc3ccccn3)n2)CC1`: the concentration for half-maximal inhibition (IC50) in the series on Plasmodium falciparum [1] worked out at 28 nM; in the series on Plasmodium falciparum [4], 137 nM. For the same molecule, the selectivity ratio in series [2] was over 321; in series [3], over 66. Also, the Activity entry in the series on Vero [5] is listed as “Non-Toxic”.
Regarding `CCN(CC)CCCC(C)Nc1ccnc2cc(Cl)ccc12` (stereo not given) [CHLOROQUINE], the Activity result in the series with Vero [5] is listed as “Non-Toxic”.
For the molecule `CCN1CCN(c2nc(C)cc(N(CCNc3ccnc4cc(Cl)ccc34)Cc3ccccn3)n2)CC1`, the IC50 in the series with Plasmodium falciparum [1] turned out to be 28 nM; with Plasmodium falciparum [4], 93 nM. The selectivity ratio in series [2] is over 326; in series [3] it was over 98. Further, the Activity entry in the series on Vero [5] is “Non-Toxic”.
On the same counts, the results for `Cc1cc(N2CCCC2)nc(N(CCNc2ccnc3cc(Cl)ccc23)Cc2ccccn2)n1` are 140 nM, 855 nM, over 71.7, over 11.7 and “Non-Toxic”.
Consider `Cc1cc(N2CCOCC2)nc(N(CCCNc2ccnc3cc(Cl)ccc23)Cc2ccccn2)n1`, for which the values for the IC50 in the series on Plasmodium falciparum [1] and in the series on Plasmodium falciparum [4] were 1140 nM and 334 nM, respectively. Moreover, the selectivity ratio in series [2] is over 8.3; in series [3] it was over 28.3. The Activity result in the series with Vero [5] is recorded as “Non-Toxic”.
On the same counts, the results for `Cc1cc(N(CCNc2ccnc3cc(Cl)ccc23)Cc2ccccn2)nc(N2CCCC2)n1` are 30 nM, 143 nM, over 331, over 70 and “Non-Toxic”.
On the same counts, the results for `Cc1cc(N2CCN(C)CC2)nc(N(CCCNc2ccnc3cc(Cl)ccc23)Cc2cccs2)n1` are 38.9 nM, 19.9 nM, over 23.4, over 45.8 and “Non-Toxic”.
On the same counts, the results for `CCN1CCN(c2cc(C)nc(N(CCNc3ccnc4cc(Cl)ccc34)Cc3ccccn3)n2)CC1` are 34 nM, 39 nM, over 270, over 273 and “Non-Toxic”.
On to `Cc1cc(N(CCCNc2ccnc3cc(Cl)ccc23)Cc2ccccn2)nc(Cl)n1`, for which the half-inhibitory concentration (IC50) is 1390 nM in the series on Plasmodium falciparum [1] and 319 nM with Plasmodium falciparum [4]. The figures for the selectivity ratio in series [2] and in series [3] were over 7.6 and over 33.5, respectively. Also, the Activity result in the series with Vero [5] is recorded as “Non-Toxic”.
Taken in the same sequence, the figures for `Cc1cc(N2CCOCC2)nc(N(CCNc2ccnc3cc(Cl)ccc23)Cc2ccccn2)n1` were 311 nM, 248 nM, over 31.2, over 39.1 and “Non-Toxic”.
On the same counts, the results for `Cc1cc(N(CCNc2ccnc3cc(Cl)ccc23)Cc2ccccn2)nc(N2CCCCC2)n1` are 65 nM, 494 nM, over 151, over 19.7 and “Non-Toxic”.
Taken in the same sequence, the figures for `Cc1cc(N(CCCNc2ccnc3cc(Cl)ccc23)Cc2ccccn2)nc(N2CCOCC2)n1` were 114 nM, 511 nM, over 82.5, over 18.5 and “Non-Toxic”.
For the molecule `Cc1cc(Cl)nc(N(CCCNc2ccnc3cc(Cl)ccc23)Cc2ccccn2)n1`, the 50% inhibitory concentration (IC50) in the series with Plasmodium falciparum [1] turned out to be 1660 nM; with Plasmodium falciparum [4] it was 804 nM. Besides, the selectivity ratio in series [2] was over 6.3; in series [3] it was over 13. In the series with Vero [5], the Activity result is given as “Non-Toxic”.
Taken in the same sequence, the figures for `Clc1ccc2c(NCCCNCc3cccs3)ccnc2c1` were 424 nM, 75.1 nM, over 33.8, over 19.1 and “Non-Toxic”.
For the molecule `C[C@@H]1CC[C@H]2[C@@H](C)C(=O)O[C@@H]3O[C@@]4(C)CC[C@@H]1[C@]32OO4` [ARTEMISININ], the figures for the half-maximal inhibitory concentration (IC50) in the series with Plasmodium falciparum [1] and with Plasmodium falciparum [4] were 17.1 nM and 16.2 nM, respectively. The selectivity ratio in series [2] was over 49.2; in series [3] it was over 52. In addition, the Activity entry in the series on Vero [5] is “Non-Toxic”.
`Cc1cc(N(CCCNc2ccnc3cc(Cl)ccc23)Cc2ccccn2)nc(N2CCCC2)n1`: the half-maximal inhibitory concentration (IC50) in the series on Plasmodium falciparum [1] amounted to 36 nM; with Plasmodium falciparum [4], 140 nM. In addition, the selectivity ratio is over 274 in series [2] and over 69 in series [3]. The Activity entry in the series with Vero [5] was “Non-Toxic”.
Taken in the same sequence, the figures for `Cc1cc(N(CCCNc2ccnc3cc(Cl)ccc23)Cc2cccs2)nc(N2CCN(C)CC2)n1` were 37 nM, 38.7 nM, over 24.6, over 23.5 and “Non-Toxic”.
Taken in the same sequence, the figures for `Cc1cc(N(CCNc2ccnc3cc(Cl)ccc23)Cc2ccccn2)nc(Cl)n1` were 233 nM, 492 nM, over 46.6, over 22 and “Non-Toxic”.
On the same counts, the results for `Cc1cc(N(CCNc2ccnc3cc(Cl)ccc23)Cc2ccccn2)nc(N2CCOCC2)n1` are 152 nM, 526 nM, over 64.2, over 18.5 and “Non-Toxic”.
Take `Cc1cc(N(CCCNc2ccnc3cc(Cl)ccc23)Cc2cccs2)nc(Cl)n1`: the 50% inhibitory concentration (IC50) in the series on Plasmodium falciparum [1] amounted to 246 nM; in the series with Plasmodium falciparum [4], 606 nM. The selectivity ratio in series [2] is over 42.2; in series [3], over 17.1. Moreover, the Activity result with Vero [5] is “Non-Toxic”.
Taken in the same sequence, the figures for `Cc1cc(Cl)nc(N(CCCNc2ccnc3cc(Cl)ccc23)Cc2cccs2)n1` were 119 nM, 462 nM, over 87.2, over 22.5 and “Non-Toxic”.
Turning to `Cc1cc(N2CCCCC2)nc(N(CCCNc2ccnc3cc(Cl)ccc23)Cc2ccccn2)n1`, the IC50 in the series with Plasmodium falciparum [1] came out at 1190 nM; in the series on Plasmodium falciparum [4], 945 nM. The selectivity ratio in series [2] was over 7.9; in series [3], over 10. Moreover, in the series with Vero [5], the Activity entry is given as “Non-Toxic”.
As for `Cc1cc(N(CCCNc2ccnc3cc(Cl)ccc23)Cc2ccccn2)nc(N2CCN(C)CC2)n1`, the IC50 with Plasmodium falciparum [1] amounted to 426 nM; with Plasmodium falciparum [4] it was 243 nM. For the same molecule, the selectivity ratio was over 21.6 in series [2] and over 37.8 in series [3]. Also, the Activity result with Vero [5] is on record as “Non-Toxic”.
Taken in the same sequence, the figures for `Cc1cc(N2CCCC2)nc(N(CCCNc2ccnc3cc(Cl)ccc23)Cc2cccs2)n1` were 35.9 nM, 40.1 nM, over 26.8, over 24 and “Non-Toxic”.
For `Cc1cc(N(CCCNc2ccnc3cc(Cl)ccc23)Cc2cccs2)nc(N2CCCC2)n1`, the concentration for half-maximal inhibition (IC50) is 42 nM in the series on Plasmodium falciparum [1] and 202 nM in the series with Plasmodium falciparum [4]. Further, the selectivity ratio in series [2] is over 229; in series [3] it was over 47.7. Besides, in the series with Vero [5], the Activity result was “Non-Toxic”.
`Cc1cc(N2CCCC2)nc(N(CCCNc2ccnc3cc(Cl)ccc23)Cc2ccccn2)n1`: the half-maximal inhibitory concentration (IC50) stood at 1040 nM in the series with Plasmodium falciparum [1] and 389 nM in the series with Plasmodium falciparum [4]. Further, the selectivity ratio is over 9.4 in series [2] and over 25.1 in series [3]. The Activity entry in the series on Vero [5] was “Non-Toxic”.
On the same counts, the results for `Cc1cc(N2CCN(C)CC2)nc(N(CCNc2ccnc3cc(Cl)ccc23)Cc2ccccn2)n1` are 40 nM, 139 nM, over 238, over 68 and “Non-Toxic”.
Taken in the same sequence, the figures for `Cc1cc(N2CCOCC2)nc(N(CCCNc2ccnc3cc(Cl)ccc23)Cc2cccs2)n1` were 55.8 nM, 542 nM, over 167, over 17.2 and “Non-Toxic”.
As for `Cc1cc(N2CCCCC2)nc(N(CCNc2ccnc3cc(Cl)ccc23)Cc2ccccn2)n1`, the IC50 in the series with Plasmodium falciparum [1] came out at 252 nM; in the series with Plasmodium falciparum [4], 1440 nM. In addition, the selectivity ratio in series [2] was over 38.6; in series [3], over 6.8. Further, the Activity entry in the series on Vero [5] is given as “Non-Toxic”.
On the same counts, the results for `Cc1cc(N2CCN(C)CC2)nc(N(CCCNc2ccnc3cc(Cl)ccc23)Cc2ccccn2)n1` are 551 nM, 189 nM, over 16.7, over 48.5 and “Non-Toxic”.
